Source: the CheMixHub viscosity set
Values joined by “and” are separate entries in the source; they are usually repeats but may differ in a detail not shown here. Identical values can stand only once.

Assay: xn = mol fraction of the nth substance listed

Cc1cccc(C)n1 + O
Details | viscosity
293.18 K, 101 kPa, x1 = 0.06338 | 2.838 mPa·s
295.15 K, 101 kPa, x1 = 0.0183 | 1.357 mPa·s
295.15 K, 101 kPa, x1 = 0.0403 | 1.932 mPa·s
295.15 K, 101 kPa, x1 = 0.0675 | 2.915 mPa·s
295.15 K, 101 kPa, x1 = 0.0833 | 3.276 mPa·s
295.15 K, 101 kPa, x1 = 0.144 | 4.298 mPa·s
295.15 K, 101 kPa, x1 = 0.282 | 5.153 mPa·s
295.15 K, 101 kPa, x1 = 0.402 | 4.278 mPa·s
295.15 K, 101 kPa, x1 = 0.602 | 2.687 mPa·s
296.18 K, 101 kPa, x1 = 0.06338 | 2.578 mPa·s
298.12 K, 101 kPa, x1 = 0.3006 | 4.353 mPa·s
298.15 K, 101 kPa, x1 = 0.02034 | 1.346 mPa·s
298.15 K, 101 kPa, x1 = 0.0297 | 1.553 mPa·s
298.15 K, 101 kPa, x1 = 0.05039 | 2.066 mPa·s
298.15 K, 101 kPa, x1 = 0.07682 | 2.713 mPa·s
298.15 K, 101 kPa, x1 = 0.1166 | 3.638 mPa·s
298.15 K, 101 kPa, x1 = 0.1208 | 3.916 mPa·s
298.16 K, 101 kPa, x1 = 0.5008 | 2.844 mPa·s
298.17 K, 101 kPa, x1 = 0.3981 | 3.708 mPa·s
298.18 K, 101 kPa, x1 = 0.06338 | 2.428 mPa·s
298.19 K, 101 kPa, x1 = 0.0602 | 2.361 mPa·s
298.19 K, 101 kPa, x1 = 0.7887 | 1.038 mPa·s
298.2 K, 101 kPa, x1 = 0.1001 | 3.14 mPa·s
298.2 K, 101 kPa, x1 = 0.651 | 1.812 mPa·s
298.21 K, 101 kPa, x1 = 0.0501 | 2.095 mPa·s
298.23 K, 101 kPa, x1 = 0.2004 | 4.298 mPa·s
299.18 K, 101 kPa, x1 = 0.06338 | 2.36 mPa·s
300.12 K, 101.33 kPa, x1 = 0.0182 | 1.217 mPa·s
300.18 K, 101 kPa, x1 = 0.06338 | 2.291 mPa·s
301.18 K, 101 kPa, x1 = 0.06338 | 2.243 mPa·s
302.02 K, 101 kPa, x1 = 0.0297 | 1.415 mPa·s
302.18 K, 101 kPa, x1 = 0.06338 | 2.182 mPa·s
303.02 K, 101 kPa, x1 = 0.2004 | 3.54 mPa·s
303.05 K, 101 kPa, x1 = 0.0602 | 2.172 mPa·s
303.08 K, 101 kPa, x1 = 0.1001 | 2.712 mPa·s
303.12 K, 101.33 kPa, x1 = 0.0182 | 1.132 mPa·s
303.17 K, 101 kPa, x1 = 0.0501 | 1.932 mPa·s
303.17 K, 101 kPa, x1 = 0.3006 | 3.538 mPa·s
303.18 K, 101 kPa, x1 = 0.06338 | 2.136 mPa·s
303.19 K, 101 kPa, x1 = 0.3981 | 3.072 mPa·s
303.19 K, 101 kPa, x1 = 0.5008 | 2.464 mPa·s
303.23 K, 101 kPa, x1 = 0.7887 | 0.955 mPa·s
303.26 K, 101 kPa, x1 = 0.651 | 1.593 mPa·s
304.18 K, 101 kPa, x1 = 0.06338 | 2.093 mPa·s
304.48 K, 101 kPa, x1 = 0.06338 | 2.084 mPa·s
304.78 K, 101 kPa, x1 = 0.06338 | 2.076 mPa·s
304.98 K, 101 kPa, x1 = 0.06338 | 2.071 mPa·s
305.18 K, 101 kPa, x1 = 0.06338 | 2.066 mPa·s
305.38 K, 101 kPa, x1 = 0.06338 | 2.063 mPa·s
305.58 K, 101 kPa, x1 = 0.06338 | 2.064 mPa·s
305.78 K, 101 kPa, x1 = 0.06338 | 2.065 mPa·s
305.98 K, 101 kPa, x1 = 0.06338 | 2.065 mPa·s
306.18 K, 101 kPa, x1 = 0.06338 | 2.058 mPa·s
306.28 K, 101 kPa, x1 = 0.06338 | 2.074 mPa·s
306.38 K, 101 kPa, x1 = 0.06338 | 2.083 mPa·s
306.48 K, 101 kPa, x1 = 0.06338 | 2.088 mPa·s
306.58 K, 101 kPa, x1 = 0.06338 | 2.101 mPa·s
306.68 K, 101 kPa, x1 = 0.06338 | 2.124 mPa·s
306.78 K, 101 kPa, x1 = 0.06338 | 2.141 mPa·s
306.83 K, 101 kPa, x1 = 0.06338 | 2.151 mPa·s
306.88 K, 101 kPa, x1 = 0.06338 | 2.183 mPa·s
306.9 K, 101 kPa, x1 = 0.06338 | 2.198 mPa·s
306.93 K, 101 kPa, x1 = 0.06338 | 2.22 mPa·s
306.95 K, 101 kPa, x1 = 0.06338 | 2.242 mPa·s
306.97 K, 101 kPa, x1 = 0.06338 | 2.27 mPa·s
306.98 K, 101 kPa, x1 = 0.06338 | 2.291 mPa·s
306.99 K, 101 kPa, x1 = 0.06338 | 2.316 mPa·s
307 K, 101 kPa, x1 = 0.06338 | 2.344 mPa·s and 2.36 mPa·s
307.01 K, 101 kPa, x1 = 0.06338 | 2.384 mPa·s and 2.396 mPa·s and 2.405 mPa·s
307.35 K, 101 kPa, x1 = 0.043 | 1.5 mPa·s
307.35 K, 101 kPa, x1 = 0.0974 | 1.8 mPa·s
307.65 K, 101 kPa, x1 = 0.0403 | 1.35 mPa·s
307.65 K, 101 kPa, x1 = 0.105 | 1.95 mPa·s
308.15 K, 101 kPa, x1 = 0.0349 | 1.2 mPa·s
308.15 K, 101 kPa, x1 = 0.116 | 2.2 mPa·s
308.18 K, 101 kPa, x1 = 0.5008 | 2.071 mPa·s
308.21 K, 101 kPa, x1 = 0.3981 | 2.587 mPa·s
308.23 K, 101 kPa, x1 = 0.7887 | 0.881 mPa·s
308.26 K, 101 kPa, x1 = 0.651 | 1.413 mPa·s
309.15 K, 101 kPa, x1 = 0.0288 | 1.1 mPa·s
309.15 K, 101 kPa, x1 = 0.131 | 2.57 mPa·s
311.15 K, 101 kPa, x1 = 0.0204 | 0.96 mPa·s
311.15 K, 101 kPa, x1 = 0.155 | 2.47 mPa·s
313.15 K, 101 kPa, x1 = 0.0185 | 0.88 mPa·s
313.15 K, 101 kPa, x1 = 0.172 | 2.38 mPa·s
313.25 K, 101 kPa, x1 = 0.5008 | 1.794 mPa·s
313.31 K, 101 kPa, x1 = 0.3981 | 2.196 mPa·s
313.32 K, 101 kPa, x1 = 0.651 | 1.262 mPa·s
313.34 K, 101 kPa, x1 = 0.7887 | 0.815 mPa·s
318.3 K, 101 kPa, x1 = 0.5008 | 1.571 mPa·s
318.34 K, 101 kPa, x1 = 0.3981 | 1.902 mPa·s
318.36 K, 101 kPa, x1 = 0.7887 | 0.758 mPa·s
318.37 K, 101 kPa, x1 = 0.651 | 1.134 mPa·s
319.15 K, 101 kPa, x1 = 0.017 | 0.73 mPa·s
319.15 K, 101 kPa, x1 = 0.218 | 1.81 mPa·s
323.15 K, 101 kPa, x1 = 0.013 | 0.63 mPa·s
323.15 K, 101 kPa, x1 = 0.236 | 1.7 mPa·s
